According to US20180282281A1, “IMMUNOREGULATORY AGENTS” (FLEXUS BIOSCIENCES, INC., priority 2014, published 2018):

What follows are compounds tested against T1, human IDO1 (Homo sapiens, UniProt P14902) (assay: HEK293 human IDO1 cell-based IDO inhibition assay). Settings: read-out: HEK Human IDO-1 Potency.
T1 construct: expressed in transfected cells
Experimental: 1HEK293 cells were transfected with a pCDNA-based mammalian expression vector harboring human IDO1 cDNA (NM 002164.2) by electroporation. They were cultured in medium (DMEM with 10% FBS) containing 1 mg/ml G418 for two weeks. Clones of HEK293 cells that stably expressed human IDO1 protein were selected and expanded for IDO inhibition assay.
The human IDOL/HEK293 cells were seeded at 10,000 cells per 50 μL per well with RPMI/phenol red free media contains 10% FBS in a 384-well black wall clear bottom tissue culture plate (Matrix Technologies LLC) 100 nL of certain concentration of compound was then added to each well using ECHO liquid handling systems. The cells were incubated for 20 hours in 37° C. incubator with 5% CO2.
The compound treatments were stopped by adding Trichloroacetic Acid (Sigma-Aldrich) to a final concentration at 0.2%. The cell plate was further incubated at 50° C. for 30 minute. The equal volume supernatant (20 μL) and 0.2% (w/v) Ehrlich reagent (4-dimethylaminobenzaldehyde, Sigma-Aldrich) in glacial acetic acid were mixed in a new clear bottom 384-well plate. This plate was then incubated at room temperature for 30 minute. The absorbance at 490 nm was measured on Envision plate reader.

T1 sequence (P14902 whole entry): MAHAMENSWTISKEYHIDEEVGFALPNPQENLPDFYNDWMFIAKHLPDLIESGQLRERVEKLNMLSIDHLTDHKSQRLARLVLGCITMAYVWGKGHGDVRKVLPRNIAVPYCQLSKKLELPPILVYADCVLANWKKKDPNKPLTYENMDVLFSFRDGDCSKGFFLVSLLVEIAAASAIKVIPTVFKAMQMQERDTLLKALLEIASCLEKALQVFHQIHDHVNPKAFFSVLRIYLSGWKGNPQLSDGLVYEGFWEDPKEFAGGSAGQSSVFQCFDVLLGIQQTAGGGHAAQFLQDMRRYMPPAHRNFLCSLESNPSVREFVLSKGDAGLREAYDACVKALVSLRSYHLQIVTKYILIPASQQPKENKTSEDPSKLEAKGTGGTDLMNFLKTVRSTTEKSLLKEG

SMILES	IC50
CC(C(=O)Nc1ccc(Cl)cc1)N1CCC(Oc2ccc3nccc(Cl)c3c2)CC1 (single isomer, unassigned) [Example 94]	< 250 nM
CC(C(=O)Nc1ccc(Cl)cc1)N1CCN(c2ccnc3ccc(F)cc23)CC1 (single isomer, unassigned) [Example 129, N-(4-Chlorophenyl)-2-(4-(6-fluoroquinolin-4-yl)piperazin-1-yl)propanamide]	< 250 nM
CC(C(=O)Nc1ccc(Cl)cc1)N1CCN(c2ccnc3ccc(F)cc23)CC1 (single isomer, unassigned) [Example 130, N-(4-Chlorophenyl)-2-(4-(6-fluoroquinolin-4-yl)piperazin-1-yl)propanamide]	> 250 nM
COCC(C(=O)Nc1ccc(Cl)cc1)N1CCN(c2ccnc3ccc(F)cc23)CC1 (single isomer, unassigned) [Example 135, N-(4-chlorophenyl)-2-(4-(6-fluoroquinolin-4-yl)piperazin-1-yl)-3-methoxypropanamide]	> 250 nM
CC(C(=O)O)c1ccc(C[C@@H](C(=O)Nc2ccc(Cl)cc2)[C@H]2CC[C@@H](c3ccnc4ccc(F)cc43)CC2)cc1 (single isomer, unassigned) [Example 138]	< 50 nM
C[C@H](C(=O)Nc1ccc(Cl)cc1)[C@H]1CC[C@@H](c2ccnc3ccnn32)CC1 (single isomer, unassigned) [Example 144a]	< 50 nM
C[C@@H](C(=O)Nc1ccc(Cl)cc1)[C@H]1CC[C@@H](c2ccnc3ccnn32)CC1 (single isomer, unassigned) [Example 144b]	> 250 nM
C[C@H](C(=O)Nc1ccc(Cl)cc1)[C@H]1CC[C@H](c2ccnc3ccnn32)CC1 (single isomer, unassigned) [Example 144c]	< 250 nM
C[C@@H](C(=O)Nc1ccc(Cl)cc1)[C@H]1CC[C@H](c2ccnc3ccnn32)CC1 (single isomer, unassigned) [Example 144d]	> 250 nM
C[C@H](C(=O)Nc1ccc(Cl)cc1)[C@H]1CC[C@@H](c2ccnc3ncccc32)CC1 (single isomer, unassigned) [Example 148a]	> 250 nM
C[C@@H](C(=O)Nc1ccc(Cl)cc1)[C@H]1CC[C@@H](c2ccnc3ncccc32)CC1 (single isomer, unassigned) [Example 148b]	< 50 nM
C[C@H](C(=O)Nc1ccc(Cl)cc1)[C@H]1CC[C@H](c2ccnc3ncccc32)CC1 (single isomer, unassigned) [Example 148c]	< 50 nM
C[C@@H](C(=O)Nc1ccc(Cl)cc1)[C@H]1CC[C@H](c2ccnc3ncccc32)CC1 (single isomer, unassigned) [Example 148d]	< 250 nM
C[C@H](C(=O)Nc1ccc(Cl)cc1)[C@H]1CC[C@@H](c2ccnc3cn[nH]c32)CC1 (single isomer, unassigned) [Example 150a]	< 50 nM
C[C@@H](C(=O)Nc1ccc(Cl)cc1)[C@H]1CC[C@@H](c2ccnc3cn[nH]c32)CC1 (single isomer, unassigned) [Example 150b]	> 250 nM
C[C@H](C(=O)Nc1ccc(Cl)cc1)[C@H]1CC[C@H](c2ccnc3cn[nH]c32)CC1 (single isomer, unassigned) [Example 150c]	> 250 nM
C[C@@H](C(=O)Nc1ccc(Cl)cc1)[C@H]1CC[C@H](c2ccnc3cn[nH]c32)CC1 (single isomer, unassigned) [Example 150d]	< 50 nM

SMILES	IC50
C[C@H](C(=O)Nc1ccc(Cl)cc1)[C@H]1CC[C@@H](c2ccnc3ccc(I)cc32)CC1 (single isomer, unassigned) [Example 152a]	< 50 nM
C[C@@H](C(=O)Nc1ccc(Cl)cc1)[C@H]1CC[C@@H](c2ccnc3ccc(I)cc32)CC1 (single isomer, unassigned) [Example 152b]	< 50 nM
C[C@H](C(=O)Nc1ccc(Cl)cc1)[C@H]1CC[C@H](c2ccnc3ccc(I)cc32)CC1 (single isomer, unassigned) [Example 152c]	< 250 nM
C[C@@H](C(=O)Nc1ccc(Cl)cc1)[C@H]1CC[C@H](c2ccnc3ccc(I)cc32)CC1 (single isomer, unassigned) [Example 152d]	< 50 nM
CCCC(C(=O)Nc1ccc(Cl)cc1)N1CCN(c2ccnc3ccc(F)cc23)CC1 (single isomer, unassigned) [Example 245, N-(4-Chlorophenyl)-2-(4-(6-fluoroquinolin-4-yl)piperazin-1-yl)pentanamide]	< 250 nM
CCCC(C(=O)Nc1ccc(Cl)cc1)N1CCN(c2ccnc3ccc(F)cc23)CC1 (single isomer, unassigned) [Example 246, N-(4-Chlorophenyl)-2-(4-(6-fluoroquinolin-4-yl)piperazin-1-yl)pentanamide]	> 250 nM
CCCC(C(=O)NC1(C)CCCCC1)N1CCN(c2ccnc3ccc(F)cc23)CC1 (single isomer, unassigned) [Example 248, 2-(4-(6-Fluoroquinolin-4-yl)piperazin-1-yl)-N-(1-methylcyclohexyl)pentanamide]	> 250 nM
CCCC(C(=O)NC1(C)CCCCC1)N1CCN(c2ccnc3ccc(F)cc23)CC1 (single isomer, unassigned) [Example 249, 2-(4-(6-Fluoroquinolin-4-yl)piperazin-1-yl)-N-(1-methylcyclohexyl)pentanamide]	< 50 nM
C[C@@H](C(=O)Nc1ccc(Cl)cc1)[C@H]1CC[C@@H](c2ccnc3c2ncn3C)CC1 (single isomer, unassigned) [Example 251a, N-(4-chlorophenyl)-2-(4-(3-methyl-3H-imidazo[4,5-b]pyridin-7-yl)cyclohexyl)propanamide]	< 50 nM
C[C@@H](C(=O)Nc1ccc(Cl)cc1)[C@H]1CC[C@@H](c2ccnc3c2ncn3C)CC1 (single isomer, unassigned) [Example 251b, N-(4-chlorophenyl)-2-(4-(3-methyl-3H-imidazo[4,5-b]pyridin-7-yl)cyclohexyl)propanamide]	> 250 nM
C[C@@H](C(=O)Nc1ccc(Cl)cc1)[C@H]1CC[C@@H](c2ccnc3c2ncn3C)CC1 (single isomer, unassigned) [Example 251c, N-(4-chlorophenyl)-2-(4-(3-methyl-3H-imidazo[4,5-b]pyridin-7-yl)cyclohexyl)propanamide]	< 50 nM
C[C@@H](C(=O)Nc1ccc(Cl)cc1)[C@H]1CC[C@@H](c2ccnc3c2ncn3C)CC1 (single isomer, unassigned) [Example 251d, N-(4-chlorophenyl)-2-(4-(3-methyl-3H-imidazo[4,5-b]pyridin-7-yl)cyclohexyl)propanamide]	> 250 nM
CC(C(=O)Nc1ccc(F)cc1)N1CCC(Oc2ccnc3ccc(F)cc23)CC1 (single isomer, unassigned) [compound 105]	< 50 nM
CC(C(=O)Nc1ccc(F)cc1)N1CCC(Oc2ccnc3ccc(F)cc23)CC1 (single isomer, unassigned) [compound 106]	> 250 nM
Cc1ccc(NC(=O)C(C)N2CCC(Oc3ccnc4ccc(F)cc34)CC2)cc1 (single isomer, unassigned) [compound 109]	< 50 nM
Cc1ccc(NC(=O)C(C)N2CCC(Oc3ccnc4ccc(F)cc34)CC2)cc1 (single isomer, unassigned) [compound 110]	> 250 nM
C[C@@H](C(=O)Nc1ccccc1)[C@H]1CC[C@@H](c2ccnc3ccc(F)cc32)CC1 [Example 58, (R)-2-((cis)-4-(6-fluoroquinolin-4-yl)cyclohexyl)-N-phenylpropanamide]	< 50 nM
